Paper PMC6418270, “The pharmacological and functional characterization of the serotonergic system in Anopheles gambiae and Aedes aegypti: influences on flight and blood-feeding behavior” (Scientific Reports, 2019)
Counter-ions that a name gives are not always drawn.

Columns and labels:
D. melanogaster = tested on: D. melanogaster; design: method as in PMID 26989517, PMID 24586928; conditions: larval and adult; cited from earlier work
Ae. aegypti [1] = experiment: Flight performance in flight cylinder after microinjection; assay type: in vivo, Aedes aegypti; conditions: for Distance average in flight cylinder: Fig. 5d; for Average distance dropped before landing on flight cylinder: Fig. 5b
Experimental: (§1) Stock solutions of the compounds were diluted to the appropriate concentrations in 1X phosphate buffer solution (PBS). To account for potential solvent effects, an ultrapure H2O control group was included in every independent experiment. Female mosquitoes were either cold- or CO2-anesthetized. A Nanoject II Auto-Nanoliter Injector (Drummond Scientific Company, Broomall, PA) was then utilized to microinject 69 nL of compound into the spiracle.
A flight cylinder was assembled as described previously. The polyacrylamide sheet was coated with Tangle-Trap Sticky Coating (The Scotts Company LLC, Marysville, OH) and allowed to sit overnight before insertion into the flight cylinder. Adult mosquitoes were anesthetized on a CO2 pad and microinjected with the compound or ultrapure H2O control. Post-injection, they were permitted to recover in a fly vial for 30 minutes before being ejected into the flight cylinder. After each trial, the distance between the top of the cylinder and the trapped mosquito was recorded. Mosquitoes captured in the fly vial at the bottom of the cylinder were considered to be incapable of flying and a distance of 91.5 cm was recorded.
(§2) Luminescence and calcium assay data were normalized and fitted with a non-linear least squares regression to generate dose-response curves, EC50 and IC50 values. Unpaired t-tests or Dunnett’s multiple comparisons test were performed accordingly to compare EC50 or IC50 values. Locomotion was measured based on the distance required for flight recovery. Data were compared with the Kruskal-Wallis and Dunnett’s multiple comparison tests after the Kolmogorov-Smirnov normality test was conducted. In the blood-feeding experiments, the percentage of blood-fed mosquitoes was calculated for each treatment group. For each biological replicate, the treatment groups were normalized with respect to the untreated group. Dunnett’s multiple comparison tests were utilized to determine statistical difference between normalized data. Size of bloodmeals were compared with an unpaired t-test or Mann-Whitney test after normality was evaluated with the Kolmogorov-Smirnov test. All analyses were performed utilizing GraphPad Prism version 7.00 for Mac OS X, GraphPad Software, La Jolla California USA, www.graphpad.com.

Ae. aegypti [2] = experiment: Blood-feeding assay (artificial membrane feeder) after microinjection; assay type: in vivo, Aedes aegypti; conditions: 1 mM microinjected
Experimental: as §1
Seven to ten-day old female mosquitoes were treated with compound or appropriate control through microinjection post cold-anesthetization or ingestion. Two mL of human O^+ blood (BioChemed Services, Winchester, VA) was utilized to cover the concave surface of an inverted baby food jar. Hog intestine sealed the opening to simulate the puncturing of a host’s skin. The feeding membrane was placed on the top of a mosquito cage, and hot water was poured into the jar to warm the blood. After a 45-minute feed, the mosquitoes were immediately preserved at −20 °C. The blood meal size was determined for each mosquito via hemoglobinometry as previously described.
as §2

AGAP002229 = AGAP002229 (Anopheles gambiae, UniProt A7UR33); experiment: Fluo-4 calcium assay in CRE-luc2P HEK-293 cells expressing AGAP002229; assay type: cell-based; conditions: antagonist test; receptor not given, taken as both 5-HT2 cell lines
Experimental: A week post-transfection, selective pressure was applied with […] of G418 antibiotic to generate stable lines.
1 × 10^6 cells per well were seeded into a 96-well black all-clear bottom plate and incubated overnight in 10% FBS/90% DMEM at 37 °C with an atmosphere of 5% CO2. The following day, 2X Fluo-4 Direct calcium dye (Molecular Devices LLC, San Jose, CA) was added to each well and incubated in the same conditions for 45 minutes before the assay was completed. At this time, serial dilutions of the test compounds were prepared in a 96-well clear flat bottom plate. […] Fluorescence measurements continued to be recorded for a total of 120 seconds at 2-second intervals. When testing antagonists, cells were treated with the compound prior to determination of fluorescence levels.
as §2

[3] = tested on: octopamine receptor (AGAP000045); experiment: Inhibition in HEK-293 cells expressing an octopamine receptor; assay type: cell-based, Anopheles gambiae
D. melanogaster larvae = tested on: D. melanogaster larvae; design: method as in PMID 23817146; conditions: cited from earlier work
[4] = tested on: D1-like dopamine receptors; conditions: cited from earlier work
AGAP002232 = AGAP002232 (Anopheles gambiae, UniProt A0A1S4GEY1); experiment: Fluo-4 calcium assay in CRE-luc2P HEK-293 cells expressing AGAP002232; assay type: cell-based
Experimental: The GloResponse™ CRE-luc2P human embryonic kidney (HEK-293) reporter cells were incubated at 37 °C with an atmosphere of 5% CO2, and maintained in Dulbecco’s Modified Eagle Medium (DMEM) supplemented with 10% fetal bovine serum (FBS) and […] hygromycin B. Transfection of the HEK-293 cells with 1 μg of plasmid DNA was performed with Amaxa Nucleofector™ technology (Lonza, Basel, Switzerland) as per manufacturer’s instructions. A week post-transfection, selective pressure was applied with […] of G418 antibiotic to generate stable lines.
1 × 10^6 cells per well were seeded into a 96-well black all-clear bottom plate and incubated overnight in 10% FBS/90% DMEM at 37 °C with an atmosphere of 5% CO2. The following day, 2X Fluo-4 Direct calcium dye (Molecular Devices LLC, San Jose, CA) was added to each well and incubated in the same conditions for 45 minutes before the assay was completed. At this time, serial dilutions of the test compounds were prepared in a 96-well clear flat bottom plate. Fluorescence levels were determined with a FlexStation3 microplate reader, with excitation and emission wavelengths set to 485 and 525 nm, respectively (Molecular Devices LLC). Basal fluorescence levels were measured for 17 seconds, at which time, 25 μl of the agonist compound was added. Fluorescence measurements continued to be recorded for a total of 120 seconds at 2-second intervals. When testing antagonists, cells were treated with the compound prior to determination of fluorescence levels.
as §2

Chain of AGAP002232 (A0A1S4GEY1 entry or part of it): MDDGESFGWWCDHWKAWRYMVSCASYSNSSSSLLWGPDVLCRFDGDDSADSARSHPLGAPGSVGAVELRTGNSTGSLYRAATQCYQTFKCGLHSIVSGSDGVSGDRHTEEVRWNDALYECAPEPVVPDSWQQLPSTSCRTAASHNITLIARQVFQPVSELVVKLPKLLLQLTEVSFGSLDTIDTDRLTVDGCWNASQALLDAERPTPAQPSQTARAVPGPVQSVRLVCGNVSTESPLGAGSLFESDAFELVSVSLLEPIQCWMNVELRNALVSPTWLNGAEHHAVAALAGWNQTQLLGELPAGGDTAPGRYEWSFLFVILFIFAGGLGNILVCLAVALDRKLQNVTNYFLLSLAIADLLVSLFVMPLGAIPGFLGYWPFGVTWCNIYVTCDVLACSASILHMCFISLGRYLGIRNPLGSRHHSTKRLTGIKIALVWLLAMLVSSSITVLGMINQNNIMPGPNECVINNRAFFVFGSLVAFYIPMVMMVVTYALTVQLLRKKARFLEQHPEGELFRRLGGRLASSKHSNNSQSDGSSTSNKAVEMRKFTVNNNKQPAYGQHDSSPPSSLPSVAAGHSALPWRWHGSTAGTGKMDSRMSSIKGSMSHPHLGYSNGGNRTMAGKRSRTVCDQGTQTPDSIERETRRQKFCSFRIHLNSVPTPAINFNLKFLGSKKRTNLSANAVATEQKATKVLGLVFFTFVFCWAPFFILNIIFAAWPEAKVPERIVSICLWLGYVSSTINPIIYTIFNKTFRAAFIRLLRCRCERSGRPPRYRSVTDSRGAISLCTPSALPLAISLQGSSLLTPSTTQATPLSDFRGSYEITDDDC
Chain of AGAP002229 (A7UR33 entry or part of it): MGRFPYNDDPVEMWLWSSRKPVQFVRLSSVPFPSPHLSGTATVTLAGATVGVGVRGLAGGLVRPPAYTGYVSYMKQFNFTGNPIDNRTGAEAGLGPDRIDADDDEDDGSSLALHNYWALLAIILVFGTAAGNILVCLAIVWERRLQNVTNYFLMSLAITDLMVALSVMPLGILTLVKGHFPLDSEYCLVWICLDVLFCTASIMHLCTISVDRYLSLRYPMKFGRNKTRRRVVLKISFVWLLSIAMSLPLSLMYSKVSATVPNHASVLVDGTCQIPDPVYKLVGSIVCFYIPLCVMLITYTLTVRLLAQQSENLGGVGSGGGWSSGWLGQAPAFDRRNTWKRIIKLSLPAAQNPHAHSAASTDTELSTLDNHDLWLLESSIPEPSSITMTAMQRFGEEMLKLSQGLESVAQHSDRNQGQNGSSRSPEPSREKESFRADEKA

Row | IC50 (AGAP002232; read-out: IC50 (calcium response to 5-HT), AGAP002232 HEK-293 cells) | Lowest concentration exhibiting inhibitory effects (AGAP002232; receptor not given) | SMILES | Effect on locomotion (D. melanogaster) | Distance average in flight cylinder (Ae. aegypti [1]; 2.5 mM) | Distance average in flight cylinder (Ae. aegypti [1]; 4 mM) | Successfully blood-fed, normalized to the untreated group (Ae. aegypti [2]) | Ability to inhibit activity in a dose-response manner (AGAP002229) | Successful flights (Ae. aegypti [1]; 1 mM microinjected (69 nL)) | Average distance dropped before landing on flight cylinder (Ae. aegypti [1]; 1 mM) | Successful flights (Ae. aegypti [1]; 1.5 mM microinjected (69 nL)) | Average distance dropped before landing on flight cylinder (Ae. aegypti [1]; 1.5 mM) | Average distance in flight cylinder (Ae. aegypti [1]; 1.5 mM, Fig. 5c) | Successful flights (Ae. aegypti [1]; 2.5 mM microinjected (69 nL)) | Average distance dropped before landing on flight cylinder (Ae. aegypti [1]; 2.5 mM) | Blood meal size (Ae. aegypti [2]) | Inhibitory effect on octopamine receptor ([3]; 10^−4 M) | Inhibitory effect on octopamine receptor ([3]; all other concentrations of the range 10^−10 to 10^−4 M) | Effect on feeding (D. melanogaster larvae) | Inhibition of D1-like dopamine receptors [4] | Ability to inhibit activity in a dose-response manner (AGAP002232; antagonist test, receptor not given, taken as both 5-HT2 cell lines)
1 | – | – | CNCCC(Oc1ccc(C(F)(F)F)cc1)c1ccccc1 (stereo not drawn) [fluoxetine, fluoxetine hydrochloride] | repress locomotion | 41.61 cm | 81.63 cm | approximately 80% | – | – | – | – | – | – | – | – | – | – | – | – | – | –
2 | 0.56 nM | 10^−16 M | CS(=O)(=O)O.CSc1ccc2c(c1)C(N1CCN(C)CC1)Cc1ccccc1S2 (stereo not drawn) [methiothepin, methiothepin mesylate salt] | – | – | – | 50.7% | exhibited the ability to inhibit activity in a dose-response manner | 92% | 22.77 cm | 84% | 33.04 cm | 41.38 cm | 61% | 49.27 cm | 2.25 µL | marked inhibition | did not elicit a similar result | anorectic agent | ability to inhibit D1-like dopamine receptors | exhibited the ability to inhibit activity in a dose-response manner
